# System: NOMO1
# Assay: cell viability relative to DMSO control; higher = less cytotoxic
# Details: 48 h
# Summary of the method: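 Viability is a per-plate percentage relative to DMSO wells, with cell-free wells as background. CellTiter-Glo One luminescence was read after 48 h at 37°C on 1536-well plates (5 μl) of NOMO1 or SEM (500 cells/well) or P12-Ichikawa (1000 cells/well) leukemia cells. The cells had been adapted for at least four passages in each medium and pin-dosed with library compounds in DMSO from 47 μM to 0.79 nM in 11 threefold steps.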
# [1] = HPLM + 10% dialyzed FBS, 0.000781 µM
# [2] = HPLM + 10% dialyzed FBS, 0.00234 µM
# [3] = HPLM + 10% dialyzed FBS, 0.00702 µM
# [4] = HPLM + 10% dialyzed FBS, 0.0211 µM
# [5] = HPLM + 10% dialyzed FBS, 0.0632 µM
# [6] = HPLM + 10% dialyzed FBS, 0.19 µM
# [7] = HPLM + 10% dialyzed FBS, 0.569 µM
# [8] = HPLM + 10% dialyzed FBS, 1.71 µM
# [9] = HPLM + 10% dialyzed FBS, 5.12 µM
# [10] = HPLM + 10% dialyzed FBS, 15.4 µM
# [11] = HPLM + 10% dialyzed FBS, 46.1 µM
# [12] = RPMI 5 mM glucose + 10% FBS, 0.000781 µM
# [13] = RPMI 5 mM glucose + 10% FBS, 0.00234 µM
# [14] = RPMI 5 mM glucose + 10% FBS, 0.00702 µM
# [15] = RPMI 5 mM glucose + 10% FBS, 0.0211 µM
# [16] = RPMI 5 mM glucose + 10% FBS, 0.0632 µM
# [17] = RPMI 5 mM glucose + 10% FBS, 0.19 µM
# [18] = RPMI 5 mM glucose + 10% FBS, 0.569 µM
# [19] = RPMI 5 mM glucose + 10% FBS, 1.71 µM
# [20] = RPMI 5 mM glucose + 10% FBS, 5.12 µM
# [21] = RPMI 5 mM glucose + 10% FBS, 15.4 µM
# [22] = RPMI 5 mM glucose + 10% FBS, 46.1 µM
# [23] = RPMI 5 mM glucose + 10% dialyzed FBS, 0.000781 µM
# [24] = RPMI 5 mM glucose + 10% dialyzed FBS, 0.00234 µM
# [25] = RPMI 5 mM glucose + 10% dialyzed FBS, 0.00702 µM
# [26] = RPMI 5 mM glucose + 10% dialyzed FBS, 0.0211 µM
# [27] = RPMI 5 mM glucose + 10% dialyzed FBS, 0.0632 µM
# [28] = RPMI 5 mM glucose + 10% dialyzed FBS, 0.19 µM
# [29] = RPMI 5 mM glucose + 10% dialyzed FBS, 0.569 µM
# [30] = RPMI 5 mM glucose + 10% dialyzed FBS, 1.71 µM
# [31] = RPMI 5 mM glucose + 10% dialyzed FBS, 5.12 µM
# [32] = RPMI 5 mM glucose + 10% dialyzed FBS, 15.4 µM
# [33] = RPMI 5 mM glucose + 10% dialyzed FBS, 46.1 µM
SMILES,cell viability [1],cell viability [2],cell viability [3],cell viability [4],cell viability [5],cell viability [6],cell viability [7],cell viability [8],cell viability [9],cell viability [10],cell viability [11],cell viability [12],cell viability [13],cell viability [14],cell viability [15],cell viability [16],cell viability [17],cell viability [18],cell viability [19],cell viability [20],cell viability [21],cell viability [22],cell viability [23],cell viability [24],cell viability [25],cell viability [26],cell viability [27],cell viability [28],cell viability [29],cell viability [30],cell viability [31],cell viability [32],cell viability [33]
O=C(C=CC#Cc1cccc(N[S+](=O)([O-])c2ccccc2)c1)NO,116%,121%,116%,131%,137%,142%,126%,107%,36.1%,7.6%,3.17%,124%,123%,109%,138%,119%,129%,135%,117%,41.9%,7.03%,3.62%,,,,,,,,,,,
FC1=CC=C(C=C1)N2/C=C\C=C(C(=O)NC3=CC=C(OC4=C5C=C[NH]C5=NC=C4)C(=C3)F)/C2=O,97%,117%,106%,108%,104%,144%,114%,124%,119%,122%,112%,104%,111%,109%,110%,112%,125%,116%,138%,115%,101%,120%,96.1%,92.7%,94.5%,107%,108%,108%,102%,124%,106%,115%,108%
CCCCC(=O)O[C@]1(C(=O)CO)[C@H](C)C[C@H]2[C@@H]3CCC4=CC(=O)C=C[C@]4(C)[C@@]3(F)[C@@H](O)C[C@@]21C,122%,129%,124%,135%,131%,124%,127%,122%,123%,123%,116%,,,,,,,,,,,,,,,,,,,,,,
N[S+]([O-])(=O)C1=C(Cl)C=C2\N=C/N[S+]([O-])(=O)C2=C1,109%,109%,119%,122%,114%,121%,118%,119%,109%,116%,124%,94.2%,100%,109%,100%,112%,105%,112%,107%,114%,99.5%,101%,101%,105%,106%,112%,112%,108%,102%,105%,112%,105%,105%
O=C1NC(=O)/C(=C/c2ccc3nccc(-c4ccncc4)c3c2)S1,129%,96.8%,124%,97.8%,89.6%,85.4%,55.6%,50.8%,33.8%,26%,14.7%,115%,99.6%,107%,113%,101%,92.9%,84.1%,66.7%,36.8%,29.1%,16%,107%,115%,92%,97.3%,88%,63.2%,61%,55.9%,34.7%,27.2%,13.6%
COC(=O)C[C@](O)(CCCC(C)(C)O)C(=O)O[C@@H]1C(OC)=CC23CCCN2CCc2cc4c(cc2[C@H]13)OCO4 (stereo partly drawn),114%,111%,105%,108%,118%,107%,117%,97.1%,96%,105%,96.6%,97.1%,93.4%,96.3%,102%,107%,98.4%,105%,101%,88.4%,93.6%,90.1%,102%,105%,104%,111%,108%,109%,101%,100%,102%,103%,97.8%
COc1ccc([S+](=O)([O-])N(C(C)=O)c2ccccc2/C=C/c2cc[n+]([O-])cc2)cc1,,,,,,,,,,,,116%,106%,129%,114%,105%,112%,130%,44.5%,21%,24.4%,22.6%,108%,111%,116%,126%,115%,121%,122%,46.4%,25.3%,26.8%,28.4%
O=C1[C@H](Cc2ccc(O)cc2)N2C(=O)CCN(C(=O)NCc3ccccc3)[C@H]2CN1Cc1cccc2ccccc12,86.9%,82.6%,88.9%,97.3%,92.1%,78.6%,86.3%,85%,74.9%,18.3%,74%,81.7%,78.7%,86.9%,81%,83.1%,73.9%,83.7%,73.5%,73.1%,10.6%,81.1%,76.7%,89.9%,89.5%,104%,92.5%,89.5%,84.2%,82.7%,79.2%,13.7%,82.8%
S=C(NCc1ccc2c(c1)OCO2)N1CCN(c2ncnc3c2oc2ccccc23)CC1,110%,113%,124%,104%,105%,98.2%,113%,105%,75.7%,64.1%,9.67%,117%,120%,116%,110%,114%,111%,109%,98.2%,104%,80%,26.2%,116%,106%,119%,107%,112%,107%,112%,97.1%,95.8%,89%,48.8%
N[S+]([O-])(=O)C1=CC=C(NC/2=C/C(=O)C3=CC=CC=C3C2=O)C=C1,100%,126%,111%,132%,119%,121%,134%,111%,93.2%,100%,85.4%,121%,123%,131%,151%,131%,147%,129%,132%,126%,123%,102%,,,,,,,,,,,
CNC(=O)c1ccc2cc(C3(O)CCn4cncc43)ccc2c1 (stereo not drawn),124%,131%,121%,127%,143%,118%,126%,137%,113%,98.1%,112%,105%,117%,103%,120%,110%,96.8%,102%,96.8%,108%,99.7%,114%,,,,,,,,,,,
CC(C)N[C@@H]1CCn2c(=O)[nH]c3cccc(c32)[C@H]1O,,,,,,,,,,,,119%,110%,121%,119%,111%,108%,117%,104%,105%,103%,55.6%,,,,,,,,,,,
OC[C@@H](O)[C@@H](O)[C@H](O)[C@@H](O)CO,96.4%,116%,129%,133%,131%,131%,130%,132%,129%,123%,135%,106%,114%,108%,111%,130%,109%,107%,110%,114%,112%,114%,102%,112%,99.5%,111%,113%,137%,122%,108%,135%,127%,131%
CCOC(=O)c1ccc(OC(=O)CCCCCNC(=N)N)cc1,126%,115%,122%,116%,137%,128%,127%,84.6%,91.8%,62.4%,55%,117%,119%,124%,114%,131%,128%,114%,132%,77.3%,83%,104%,116%,110%,135%,134%,114%,142%,137%,154%,85.7%,81.8%,91.2%
O=C(O)Cn1nnc(-c2cc(N3CCC(Oc4cc(F)ccc4Br)CC3)no2)n1,96%,97.7%,97.2%,111%,108%,99.6%,106%,34.7%,29.9%,24.4%,24.6%,102%,105%,106%,109%,109%,106%,104%,22.9%,22.1%,16%,16.6%,83.1%,109%,100%,104%,115%,113%,112%,45.2%,31.9%,25.4%,22.8%
O=C(O)C1(Cc2cccc(Nc3nccs3)n2)CCC(Oc2cccc(Cl)c2F)CC1 (stereo not drawn),98.9%,116%,117%,108%,104%,116%,120%,69.6%,45.3%,34.2%,35.5%,110%,96.2%,99.5%,91.9%,106%,102%,96.9%,74.1%,43.7%,31.8%,23.2%,107%,104%,98.8%,104%,105%,105%,102%,72%,50.4%,34.4%,34%
CC(C)(C#N)c1cc(Cn2cncn2)cc(C(C)(C)C#N)c1,,,,,,,,,,,,123%,106%,102%,111%,109%,106%,127%,114%,44.2%,106%,107%,,,,,,,,,,,
Nc1ncnc2c1ncn2[C@@H]1O[C@@H](CO)[C@H](O)[C@@H]1O,94.2%,125%,117%,140%,142%,134%,144%,156%,139%,140%,136%,,,,,,,,,,,,122%,121%,122%,127%,135%,136%,133%,135%,127%,155%,137%
